{
  "source": "patent EP2043663B1",
  "about": "“TOPICAL TREATMENT OF WARTS” (ITH Immune Therapy Holdings AB, priority 2006, dated 2008)",
  "key": {"common wart": {"test_system": "common wart", "test": "Treatment of warts II: gelled aqueous dithionite solution applied to a wart", "assay_type": "in vivo, person", "conditions": "several drops of freshly prepared aqueous solution containing 2.0 % by weight of hydroxypropylmethyl cellulose; back of hand; rinsed after half an hour; wart wetted three hours from application; wooden spatula", "text": "Treatment of warts II. Several drops of freshly prepared aqueous solution of sodium dithionite containing 2.0 % by weight of hydroxypropylmethyl cellulose are applied to a common wart on the back of a persons hand. After half an hour the hand is rinsed with water. Three hours from application the wart is wetted."}, "epithelial cells": {"test_system": "epithelial cells", "test": "Epithelial cytotoxicity cell assay", "assay_type": "cell-based", "conditions": "AIM V medium"}},
  "data": [
    {"smiles": "O=S([O-])S(=O)[O-].[Na+].[Na+]", "note": "[sodium dithionite]", "values": [
      {"measurement": "removability of the wart", "setting": "common wart", "result": "easily removed"},
      {"measurement": "effect on the cells (cytotoxicity)", "setting": "epithelial cells; highest concentration", "result": "substantial cell death"},
      {"measurement": "effect on the cells (cytotoxicity)", "setting": "epithelial cells; lowest concentration, 0.001 g/mL", "result": "did not affect the cells"}
    ]}
  ]
}
